From PubChem BioAssay (NCI)
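Protocol summary: plate cells (96-well), add compound at 5 concentrations, incubate 48 h, interpolate endpoints linearly. Here, GI50 denotes the concentration required for 50% inhibition of growth. At the TGI there is no net growth.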

Experiments:
Assay in all cases: inhibition of tumour cell growth, NCI panel, 48 h
ACHN renal = test system: ACHN renal
CAKI-1 renal = test system: CAKI-1 renal
CCRF-CEM leukemia = test system: CCRF-CEM leukemia
HCT-116 colon = test system: HCT-116 colon
IGROV1 ovarian = test system: IGROV1 ovarian
LXFL 529 NSCLC = test system: LXFL 529 NSCLC
NCI-H23 lung = test system: NCI-H23 lung
SK-MEL-28 melanoma = test system: SK-MEL-28 melanoma
MCF7 breast = test system: MCF7 breast

## Nc1ccc(CCN2CCN(c3cccc(C(F)(F)F)c3)CC2)cc1
ACHN renal
  TGI: > 100 µM
CAKI-1 renal
  TGI: > 100 µM
CCRF-CEM leukemia
  TGI: > 100 µM
HCT-116 colon
  TGI: > 100 µM
IGROV1 ovarian
  TGI: > 100 µM
LXFL 529 NSCLC
  TGI: > 100 µM
NCI-H23 lung
  TGI: > 100 µM
SK-MEL-28 melanoma
  TGI: > 100 µM

## Cc1cc(S(=O)(=O)Nc2nnc(-c3ccco3)c(-c3ccco3)n2)c(SCc2ccccc2)cc1Cl
ACHN renal
  GI50: 20.2 µM
  TGI: 41.9 µM
CAKI-1 renal
  GI50: 28.5 µM
  TGI: 55.8 µM
CCRF-CEM leukemia
  GI50: 23.2 µM
  TGI: 66.1 µM
HCT-116 colon
  GI50: 33.2 µM
  TGI: > 100 µM
IGROV1 ovarian
  GI50: 32.4 µM
  TGI: > 100 µM
MCF7 breast
  GI50: 26.7 µM
  TGI: 61.9 µM
NCI-H23 lung
  GI50: 22.8 µM
  TGI: 46.9 µM
SK-MEL-28 melanoma
  GI50: 20.7 µM
  TGI: 40.5 µM

## CCNCCNc1cc(-c2ccc(Cl)cc2)c(C#N)c2nc3ccccc3n12
ACHN renal
  GI50: 1.48 µM
  TGI: 2.89 µM
CAKI-1 renal
  GI50: 1.63 µM
  TGI: 3.28 µM
CCRF-CEM leukemia
  GI50: 0.49 µM
  TGI: 2.41 µM
HCT-116 colon
  GI50: 1.27 µM
  TGI: 2.59 µM
IGROV1 ovarian
  GI50: 1.68 µM
  TGI: 3.37 µM
MCF7 breast
  GI50: 1.37 µM
  TGI: 3.05 µM
NCI-H23 lung
  GI50: 1.85 µM
  TGI: 3.91 µM
SK-MEL-28 melanoma
  GI50: 1.8 µM
  TGI: 3.34 µM

## O=P(Oc1ccccc1)(Oc1ccccc1)C(O)c1ccccc1 (stereo unspecified)
ACHN renal
  GI50: > 100 µM
  TGI: > 100 µM
CAKI-1 renal
  GI50: 66.5 µM
  TGI: > 100 µM
CCRF-CEM leukemia
  GI50: > 100 µM
  TGI: > 100 µM
HCT-116 colon
  GI50: 65.9 µM
  TGI: > 100 µM
IGROV1 ovarian
  GI50: 37.2 µM
  TGI: > 100 µM
MCF7 breast
  GI50: > 100 µM
  TGI: > 100 µM
NCI-H23 lung
  GI50: > 100 µM
  TGI: > 100 µM
SK-MEL-28 melanoma
  GI50: 85.7 µM
  TGI: > 100 µM

## Cc1c(C(=O)CCl)c(=O)n(-c2ccccc2)n1C
ACHN renal
  GI50: 4.54 µM
  TGI: 16.6 µM
CAKI-1 renal
  GI50: 3.2 µM
  TGI: 12 µM
CCRF-CEM leukemia
  GI50: 1.01 µM
  TGI: 4.82 µM
HCT-116 colon
  GI50: 2.86 µM
  TGI: 10.4 µM
IGROV1 ovarian
  GI50: 2.19 µM
  TGI: 6.92 µM
MCF7 breast
  GI50: 2.73 µM
  TGI: 11.6 µM
NCI-H23 lung
  GI50: 5.17 µM
  TGI: 21.1 µM
SK-MEL-28 melanoma
  GI50: 3.27 µM
  TGI: 11.6 µM

## O=C(CCl)Nc1ccccc1SCc1cc(Cl)cc2c1OCOC2
ACHN renal
  GI50: 10.6 µM
  TGI: 23.8 µM
CAKI-1 renal
  GI50: 5.5 µM
  TGI: 32.6 µM
CCRF-CEM leukemia
  GI50: 2.18 µM
  TGI: 5.35 µM
HCT-116 colon
  GI50: 4.64 µM
  TGI: 16.8 µM
IGROV1 ovarian
  GI50: 2.27 µM
  TGI: 5.62 µM
MCF7 breast
  GI50: 3.41 µM
  TGI: 15.4 µM
NCI-H23 lung
  GI50: 9.58 µM
  TGI: 31.2 µM
SK-MEL-28 melanoma
  GI50: 13.5 µM
  TGI: 26.8 µM

## CC(=O)C(C(=N)C#N)C(=O)Nc1ccccc1 (stereo unspecified)
ACHN renal
  TGI: > 100 µM
CAKI-1 renal
  TGI: > 100 µM
CCRF-CEM leukemia
  TGI: > 100 µM
HCT-116 colon
  TGI: > 100 µM
IGROV1 ovarian
  TGI: > 100 µM
MCF7 breast
  TGI: > 100 µM
NCI-H23 lung
  TGI: > 100 µM
SK-MEL-28 melanoma
  TGI: > 100 µM

## O=C1c2cccnc2-c2nc(-c3ccccn3)cc3c2c1nc1ccccc13
ACHN renal
  GI50: 0.0333 µM
  TGI: 0.368 µM
CAKI-1 renal
  GI50: 0.119 µM
  TGI: 0.781 µM
CCRF-CEM leukemia
  GI50: 0.0619 µM
HCT-116 colon
  GI50: 0.0885 µM
  TGI: 0.332 µM
IGROV1 ovarian
  GI50: 0.099 µM
  TGI: 0.305 µM
MCF7 breast
  GI50: 0.463 µM
  TGI: 2.22 µM
NCI-H23 lung
  GI50: 0.374 µM
  TGI: 1.78 µM
SK-MEL-28 melanoma
  GI50: 0.452 µM
  TGI: 1.75 µM

## COc1cccc(-c2nc(-c3ccc(NS(=O)(=O)c4ccccc4)cc3)[nH]c2-c2ccnc(Br)c2)c1
ACHN renal
  GI50: 2.6 µM
  TGI: > 100 µM
CAKI-1 renal
  GI50: 1.75 µM
  TGI: 5.63 µM
CCRF-CEM leukemia
  GI50: 3.14 µM
  TGI: > 100 µM
HCT-116 colon
  GI50: 2.09 µM
  TGI: 5.46 µM
IGROV1 ovarian
  GI50: 3.84 µM
  TGI: > 100 µM
MCF7 breast
  GI50: 2.64 µM
  TGI: > 100 µM
NCI-H23 lung
  GI50: 3.06 µM
  TGI: 17.2 µM
SK-MEL-28 melanoma
  GI50: 2.91 µM
  TGI: 31 µM

## O=C1C(c2ccc(Cl)cc2)=[N+]([O-])c2ccccc21
ACHN renal
  TGI: 28.5 µM
CCRF-CEM leukemia
  TGI: 25.5 µM
HCT-116 colon
  TGI: 27.8 µM
IGROV1 ovarian
  TGI: 33.9 µM
LXFL 529 NSCLC
  TGI: 18.6 µM
NCI-H23 lung
  TGI: 31.2 µM
SK-MEL-28 melanoma
  TGI: 28.5 µM

## C[C@@H](Oc1cc(-c2cnn(C3CCNCC3)c2)cnc1N)c1c(Cl)ccc(F)c1Cl
ACHN renal
  GI50: 2.97 µM
  TGI: > 10 µM
CAKI-1 renal
  GI50: 3.39 µM
  TGI: > 10 µM
CCRF-CEM leukemia
  GI50: 0.621 µM
  TGI: 5.13 µM
HCT-116 colon
  GI50: 0.619 µM
  TGI: 4.77 µM
IGROV1 ovarian
  GI50: 2.17 µM
  TGI: > 10 µM
MCF7 breast
  GI50: 0.457 µM
  TGI: 2.43 µM
NCI-H23 lung
  GI50: 0.93 µM
  TGI: > 10 µM
SK-MEL-28 melanoma
  GI50: 1.61 µM
  TGI: 3.54 µM

## COc1cc2c3c(n(CCCO)c(=O)c2cc1OC)-c1cc2c(cc1C3=O)OCO2
ACHN renal
  GI50: 1.65 µM
  TGI: 9.83 µM
CAKI-1 renal
  GI50: 0.465 µM
  TGI: > 19.6 µM
CCRF-CEM leukemia
  GI50: 3.54 µM
  TGI: 14.4 µM
HCT-116 colon
  GI50: 2.96 µM
  TGI: > 38.6 µM
IGROV1 ovarian
  GI50: 17.4 µM
  TGI: > 100 µM
MCF7 breast
  GI50: 2.94 µM
  TGI: > 100 µM
NCI-H23 lung
  GI50: 6.75 µM
  TGI: 28.3 µM
SK-MEL-28 melanoma
  GI50: > 31.2 µM
  TGI: > 100 µM
